Measured values as given in paper PMC5564600 (Oncotarget, 2017).

Experiments:
Experiment in all cases: biochemical
Assay type in all cases: binding
[1] = target: T1, panel of 442 kinases (Homo sapiens, UniProt Q9NWZ3); settings: kinase IRAK4; for remaining activity at 1 µM: read-out: % of control at 1 µM
T1 construct: purchased Ambit Biosciences (scanMAXX KINOMEscan)
T1 sequence (Q9NWZ3 1-460): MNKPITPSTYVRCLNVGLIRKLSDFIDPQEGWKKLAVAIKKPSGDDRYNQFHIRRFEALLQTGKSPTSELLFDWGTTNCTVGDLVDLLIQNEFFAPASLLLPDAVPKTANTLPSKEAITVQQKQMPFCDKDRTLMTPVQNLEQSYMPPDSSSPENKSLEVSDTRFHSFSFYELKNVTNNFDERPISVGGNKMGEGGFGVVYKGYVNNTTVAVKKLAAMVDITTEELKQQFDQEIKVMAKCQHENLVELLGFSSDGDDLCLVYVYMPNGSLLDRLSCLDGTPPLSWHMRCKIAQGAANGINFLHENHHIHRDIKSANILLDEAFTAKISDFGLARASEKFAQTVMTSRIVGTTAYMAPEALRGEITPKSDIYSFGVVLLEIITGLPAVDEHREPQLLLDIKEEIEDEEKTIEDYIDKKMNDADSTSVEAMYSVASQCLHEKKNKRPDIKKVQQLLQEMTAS

[2] = target: T2, panel of 442 kinases (Homo sapiens, UniProt Q9H2G2); settings: kinase SLK; for remaining activity at 1 µM: read-out: SLK (% of control at 1 µM)
T2 construct: purchased Ambit Biosciences (scanMAXX KINOMEscan)

[3] = target: T3, panel of 442 kinases (Homo sapiens, UniProt P11362); settings: FGFR1; for remaining activity at 1 µM: read-out: % of control at 1 µM
T3 construct: purchased Ambit Biosciences (scanMAXX KINOMEscan)

[4] = target: T4, panel of 442 kinases (Homo sapiens, UniProt Q15746); settings: kinase MYLK; for remaining activity at 1 µM: read-out: % of control at 1 µM
T4 construct: purchased Ambit Biosciences (scanMAXX KINOMEscan)

[5] = target: T5, panel of 442 kinases (Homo sapiens, UniProt P15056, V600E); settings: BRAF(V600E); for remaining activity at 1 µM: read-out: % of control at 1 µM
T5 construct: purchased Ambit Biosciences (scanMAXX KINOMEscan)

[6] = target: T6, panel of 442 kinases (Homo sapiens, UniProt Q02779); settings: kinase MLK2; for remaining activity at 1 µM: read-out: % of control at 1 µM
T6 construct: purchased Ambit Biosciences (scanMAXX KINOMEscan)

[7] = target: T7, panel of 442 kinases (Homo sapiens, UniProt P0C1S8); settings: kinase WEE2; for remaining activity at 1 µM: read-out: WEE2 (% of control at 1 µM)
T7 construct: purchased Ambit Biosciences (scanMAXX KINOMEscan)

[8] = target: T8, panel of 442 kinases (Homo sapiens, UniProt P36888, R834Q); settings: kinase FLT3(R834Q); for remaining activity at 1 µM: read-out: % of control at 1 µM
T8 construct: purchased Ambit Biosciences (scanMAXX KINOMEscan)
T8 sequence (P36888 27-993 R834Q): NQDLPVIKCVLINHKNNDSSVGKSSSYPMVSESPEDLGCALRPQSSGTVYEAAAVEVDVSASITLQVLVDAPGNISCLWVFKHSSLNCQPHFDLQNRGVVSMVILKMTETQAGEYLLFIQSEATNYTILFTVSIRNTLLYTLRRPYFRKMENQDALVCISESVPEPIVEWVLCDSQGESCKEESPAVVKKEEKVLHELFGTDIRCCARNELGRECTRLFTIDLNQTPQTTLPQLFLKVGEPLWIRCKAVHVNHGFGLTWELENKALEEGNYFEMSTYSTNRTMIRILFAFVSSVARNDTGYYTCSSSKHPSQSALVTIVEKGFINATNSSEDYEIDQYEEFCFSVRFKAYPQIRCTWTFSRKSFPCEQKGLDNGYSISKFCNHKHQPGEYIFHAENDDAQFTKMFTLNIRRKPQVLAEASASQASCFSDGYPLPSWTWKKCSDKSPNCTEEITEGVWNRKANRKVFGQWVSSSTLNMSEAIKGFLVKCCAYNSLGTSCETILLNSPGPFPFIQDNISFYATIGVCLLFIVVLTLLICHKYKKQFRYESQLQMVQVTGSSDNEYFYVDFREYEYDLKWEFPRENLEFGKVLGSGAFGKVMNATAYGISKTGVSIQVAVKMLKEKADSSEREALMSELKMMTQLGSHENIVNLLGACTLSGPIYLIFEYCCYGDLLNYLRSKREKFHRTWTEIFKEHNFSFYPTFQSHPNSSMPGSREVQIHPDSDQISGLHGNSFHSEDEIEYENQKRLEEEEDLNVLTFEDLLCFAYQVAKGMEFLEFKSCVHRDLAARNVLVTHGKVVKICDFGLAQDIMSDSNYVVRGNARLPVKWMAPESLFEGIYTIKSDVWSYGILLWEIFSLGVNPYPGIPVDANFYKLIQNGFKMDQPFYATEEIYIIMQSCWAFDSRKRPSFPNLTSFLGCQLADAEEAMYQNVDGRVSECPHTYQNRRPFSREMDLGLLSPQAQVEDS

[9] = target: T9, panel of 442 kinases (Homo sapiens, UniProt O43353); settings: kinase RIPK2; for remaining activity at 1 µM: read-out: RIPK2 (% of control at 1 µM)
T9 construct: purchased Ambit Biosciences (scanMAXX KINOMEscan)

[10] = 10 µM, read-out: % of control at 10 µM

T5 sequence (P15056 whole entry V600E): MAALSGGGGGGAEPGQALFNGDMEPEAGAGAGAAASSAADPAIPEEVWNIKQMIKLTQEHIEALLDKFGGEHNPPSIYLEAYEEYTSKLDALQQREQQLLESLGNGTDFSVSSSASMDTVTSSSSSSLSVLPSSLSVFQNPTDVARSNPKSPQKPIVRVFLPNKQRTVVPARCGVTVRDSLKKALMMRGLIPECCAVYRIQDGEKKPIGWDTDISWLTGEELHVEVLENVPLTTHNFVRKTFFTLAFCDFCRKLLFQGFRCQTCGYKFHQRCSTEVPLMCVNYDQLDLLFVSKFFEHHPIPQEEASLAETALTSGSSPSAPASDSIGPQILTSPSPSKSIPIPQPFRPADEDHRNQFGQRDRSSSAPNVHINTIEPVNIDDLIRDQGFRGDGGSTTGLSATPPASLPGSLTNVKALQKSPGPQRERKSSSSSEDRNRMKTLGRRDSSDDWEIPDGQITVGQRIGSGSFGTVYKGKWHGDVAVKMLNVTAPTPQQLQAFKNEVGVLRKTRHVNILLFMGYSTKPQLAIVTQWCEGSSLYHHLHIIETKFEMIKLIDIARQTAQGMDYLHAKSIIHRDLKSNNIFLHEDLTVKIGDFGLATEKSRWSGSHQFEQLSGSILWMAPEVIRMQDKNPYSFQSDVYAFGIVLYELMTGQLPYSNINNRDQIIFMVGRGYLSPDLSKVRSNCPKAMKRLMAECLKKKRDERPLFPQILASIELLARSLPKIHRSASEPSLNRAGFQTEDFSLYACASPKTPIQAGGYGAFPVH
T3 sequence (P11362 22-822): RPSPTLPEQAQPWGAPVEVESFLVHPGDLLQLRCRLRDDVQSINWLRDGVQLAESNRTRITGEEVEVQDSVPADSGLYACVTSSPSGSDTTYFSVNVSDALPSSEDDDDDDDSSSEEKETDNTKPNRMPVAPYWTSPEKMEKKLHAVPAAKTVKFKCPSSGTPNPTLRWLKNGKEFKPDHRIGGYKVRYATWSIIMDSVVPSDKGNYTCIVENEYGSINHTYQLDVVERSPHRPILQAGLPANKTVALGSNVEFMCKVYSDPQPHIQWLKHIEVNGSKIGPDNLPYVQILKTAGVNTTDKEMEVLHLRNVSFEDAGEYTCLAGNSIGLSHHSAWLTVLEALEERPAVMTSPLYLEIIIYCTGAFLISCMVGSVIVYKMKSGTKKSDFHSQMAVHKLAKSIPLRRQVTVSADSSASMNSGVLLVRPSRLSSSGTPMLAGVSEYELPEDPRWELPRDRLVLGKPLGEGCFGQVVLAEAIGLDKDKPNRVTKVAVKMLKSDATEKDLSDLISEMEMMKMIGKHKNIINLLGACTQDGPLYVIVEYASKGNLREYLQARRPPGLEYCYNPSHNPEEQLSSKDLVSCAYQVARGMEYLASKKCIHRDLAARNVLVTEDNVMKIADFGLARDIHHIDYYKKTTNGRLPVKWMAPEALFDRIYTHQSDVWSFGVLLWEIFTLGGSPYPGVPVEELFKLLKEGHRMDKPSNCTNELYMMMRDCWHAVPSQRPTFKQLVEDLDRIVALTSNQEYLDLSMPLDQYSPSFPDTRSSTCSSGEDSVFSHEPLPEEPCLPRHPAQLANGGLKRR
T9 sequence (O43353 whole entry): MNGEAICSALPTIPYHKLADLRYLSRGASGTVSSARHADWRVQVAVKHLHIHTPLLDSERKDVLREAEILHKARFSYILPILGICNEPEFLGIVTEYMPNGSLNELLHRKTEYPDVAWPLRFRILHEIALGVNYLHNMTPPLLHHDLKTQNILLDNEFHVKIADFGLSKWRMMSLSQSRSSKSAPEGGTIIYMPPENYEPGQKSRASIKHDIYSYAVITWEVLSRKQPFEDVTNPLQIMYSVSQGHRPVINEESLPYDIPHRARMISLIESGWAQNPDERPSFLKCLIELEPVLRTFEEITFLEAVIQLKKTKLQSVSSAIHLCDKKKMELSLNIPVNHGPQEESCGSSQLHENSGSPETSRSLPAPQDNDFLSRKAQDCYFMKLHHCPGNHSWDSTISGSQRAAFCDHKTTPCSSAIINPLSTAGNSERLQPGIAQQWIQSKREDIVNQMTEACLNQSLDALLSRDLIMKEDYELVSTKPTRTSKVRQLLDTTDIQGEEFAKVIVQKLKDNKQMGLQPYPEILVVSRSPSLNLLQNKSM
T6 sequence (Q02779 whole entry): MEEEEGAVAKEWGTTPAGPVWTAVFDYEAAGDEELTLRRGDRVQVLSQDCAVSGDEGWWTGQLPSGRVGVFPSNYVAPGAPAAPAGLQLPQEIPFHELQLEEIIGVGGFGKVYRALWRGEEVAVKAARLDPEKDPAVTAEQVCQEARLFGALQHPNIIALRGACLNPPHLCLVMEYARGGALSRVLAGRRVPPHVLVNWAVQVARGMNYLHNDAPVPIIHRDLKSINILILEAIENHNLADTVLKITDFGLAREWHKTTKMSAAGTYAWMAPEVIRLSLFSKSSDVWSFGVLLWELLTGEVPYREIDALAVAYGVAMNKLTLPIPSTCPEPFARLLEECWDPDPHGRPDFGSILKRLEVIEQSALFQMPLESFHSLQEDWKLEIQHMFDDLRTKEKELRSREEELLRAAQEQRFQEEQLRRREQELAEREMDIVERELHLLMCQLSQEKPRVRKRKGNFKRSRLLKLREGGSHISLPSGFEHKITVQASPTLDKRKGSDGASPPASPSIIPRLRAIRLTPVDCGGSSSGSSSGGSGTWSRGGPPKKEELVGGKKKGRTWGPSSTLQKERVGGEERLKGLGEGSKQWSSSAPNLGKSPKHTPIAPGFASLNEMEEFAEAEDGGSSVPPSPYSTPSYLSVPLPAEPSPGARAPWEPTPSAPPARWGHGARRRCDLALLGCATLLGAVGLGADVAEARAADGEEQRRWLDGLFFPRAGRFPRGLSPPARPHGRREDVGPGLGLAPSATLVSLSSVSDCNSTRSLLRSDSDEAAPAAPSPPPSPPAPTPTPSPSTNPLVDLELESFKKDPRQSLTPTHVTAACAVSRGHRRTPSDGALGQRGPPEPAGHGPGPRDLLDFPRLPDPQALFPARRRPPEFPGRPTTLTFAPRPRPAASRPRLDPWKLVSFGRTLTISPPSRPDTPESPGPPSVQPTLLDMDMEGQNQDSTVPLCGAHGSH
T4 sequence (Q15746 whole entry): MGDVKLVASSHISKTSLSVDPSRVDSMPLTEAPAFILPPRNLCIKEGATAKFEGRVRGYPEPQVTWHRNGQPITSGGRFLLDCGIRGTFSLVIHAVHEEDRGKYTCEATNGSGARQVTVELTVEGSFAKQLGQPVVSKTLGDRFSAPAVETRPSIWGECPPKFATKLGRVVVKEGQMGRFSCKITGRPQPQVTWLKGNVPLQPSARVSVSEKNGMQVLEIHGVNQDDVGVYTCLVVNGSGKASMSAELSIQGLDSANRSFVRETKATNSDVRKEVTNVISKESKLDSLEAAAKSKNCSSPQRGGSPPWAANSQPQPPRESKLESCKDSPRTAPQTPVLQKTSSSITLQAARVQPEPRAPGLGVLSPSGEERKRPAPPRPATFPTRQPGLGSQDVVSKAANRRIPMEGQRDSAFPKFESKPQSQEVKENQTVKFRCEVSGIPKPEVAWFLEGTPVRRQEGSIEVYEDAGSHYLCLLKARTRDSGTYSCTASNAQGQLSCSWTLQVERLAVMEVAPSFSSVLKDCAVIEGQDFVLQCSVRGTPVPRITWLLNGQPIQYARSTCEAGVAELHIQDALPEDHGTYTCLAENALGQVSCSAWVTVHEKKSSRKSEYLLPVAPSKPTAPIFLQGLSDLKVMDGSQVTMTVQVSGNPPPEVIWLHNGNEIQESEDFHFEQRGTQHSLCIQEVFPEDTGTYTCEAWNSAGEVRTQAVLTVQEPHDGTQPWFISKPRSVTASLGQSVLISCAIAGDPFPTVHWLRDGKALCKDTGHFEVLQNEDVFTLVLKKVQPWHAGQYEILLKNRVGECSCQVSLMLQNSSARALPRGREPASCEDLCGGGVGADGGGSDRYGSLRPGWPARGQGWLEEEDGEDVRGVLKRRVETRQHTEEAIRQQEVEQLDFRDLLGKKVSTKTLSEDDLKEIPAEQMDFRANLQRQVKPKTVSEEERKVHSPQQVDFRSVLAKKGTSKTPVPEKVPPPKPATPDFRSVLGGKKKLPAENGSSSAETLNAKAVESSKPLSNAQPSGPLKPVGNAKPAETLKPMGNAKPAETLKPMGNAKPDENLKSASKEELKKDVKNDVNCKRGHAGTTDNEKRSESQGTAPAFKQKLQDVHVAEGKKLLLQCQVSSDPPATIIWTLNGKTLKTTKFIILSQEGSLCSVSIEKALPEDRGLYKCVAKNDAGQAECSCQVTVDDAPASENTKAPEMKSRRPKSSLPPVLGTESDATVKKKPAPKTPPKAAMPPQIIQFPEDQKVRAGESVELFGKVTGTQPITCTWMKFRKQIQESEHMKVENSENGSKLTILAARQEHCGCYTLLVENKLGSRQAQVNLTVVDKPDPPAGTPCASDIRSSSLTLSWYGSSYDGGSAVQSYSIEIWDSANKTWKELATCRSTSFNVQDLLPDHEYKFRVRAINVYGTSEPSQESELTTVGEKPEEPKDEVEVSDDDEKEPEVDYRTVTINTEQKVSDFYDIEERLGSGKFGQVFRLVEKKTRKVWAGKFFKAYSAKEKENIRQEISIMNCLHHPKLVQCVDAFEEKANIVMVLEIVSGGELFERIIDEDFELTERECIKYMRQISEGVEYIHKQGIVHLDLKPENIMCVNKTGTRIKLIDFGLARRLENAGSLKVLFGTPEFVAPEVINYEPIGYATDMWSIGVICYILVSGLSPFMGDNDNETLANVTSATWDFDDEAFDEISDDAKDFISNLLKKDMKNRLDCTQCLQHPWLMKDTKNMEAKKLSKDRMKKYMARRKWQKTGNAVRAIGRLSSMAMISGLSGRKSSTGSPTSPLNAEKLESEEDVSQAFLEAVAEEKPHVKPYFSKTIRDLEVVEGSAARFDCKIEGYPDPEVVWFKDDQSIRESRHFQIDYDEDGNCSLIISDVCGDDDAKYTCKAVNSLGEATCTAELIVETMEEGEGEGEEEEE

Row | Structure (SMILES) | remaining activity at 1 µM [1] [%] | remaining activity at 10 µM [1, 10] [%] | remaining activity at 1 µM [2] [%] | remaining activity at 10 µM ([2]; 10 µM, read-out: SLK (% of control at 10 µM)) [%] | remaining activity at 1 µM [3] [%] | remaining activity at 10 µM [3, 10] [%] | remaining activity at 1 µM [4] [%] | remaining activity at 10 µM [4, 10] [%] | remaining activity at 1 µM [5] [%] | remaining activity at 10 µM [5, 10] [%] | remaining activity at 1 µM [6] [%] | remaining activity at 10 µM [6, 10] [%] | remaining activity at 1 µM [7] [%] | remaining activity at 10 µM ([7]; 10 µM, read-out: WEE2 (% of control at 10 µM)) [%] | remaining activity at 1 µM [8] [%] | remaining activity at 10 µM [8, 10] [%] | remaining activity at 1 µM [9] [%] | remaining activity at 10 µM ([9]; 10 µM, read-out: RIPK2 (% of control at 10 µM)) [%]
1 | Nc1cc(C(F)(F)F)c(-c2cc(N3CCOCC3)nc(N3CCOCC3)n2)cn1 [Buparlisib] | 62 | 67 | 100 | 100 | 100 | 100 | 99 | 92 | 74 | 44 | 100 | 100 | 100 | 100 | 100 | 100 | 100 | 100
2 | COc1ncc(-c2ccc3nccc(-c4ccnnc4)c3c2)cc1NS(=O)(=O)c1ccc(F)cc1F [Omipalisib] | 88 | – | 100 | – | 94 | – | 78 | – | – | – | 98 | – | 84 | – | 100 | – | 59 | –
3 | FC(F)c1nc2ccccc2n1-c1nc(N2CCOCC2)nc(N2CCOCC2)n1 [ZSTK474, 2-(difluoromethyl)-1-[4,6-di(4-morpholinyl)-1,3,5-triazin-2-yl]-1H-benzimidazole] | 100 | – | 100 | – | 100 | – | 100 | – | 56 | – | 100 | – | 96 | – | 100 | – | 83 | –
4 | Cn1c(=O)n(-c2ccc(C(C)(C)C#N)cc2)c2c3cc(-c4cnc5ccccc5c4)ccc3ncc21 [Dactolisib, 2-methyl-2-[4-(3-methyl-2-oxo-8-quinolin-3-yl-2,3-dihydroimidazo[4,5-c]quinolin-1-yl)-phenyl] propionitrile] | 68 | – | 89 | – | 94 | – | 100 | – | 82 | – | 100 | – | 100 | – | – | – | 37 | –
